Laboratory results: ChEMBL document CHEMBL3045254, “Molecular modeling of the Toxoplasma gondii adenosine kinase inhibitors” (Med Chem Res, 2012)

Molecular target: T1, Adenosine kinase (Toxoplasma gondii, UniProt Q9TVW2)
T1 sequence (Q9TVW2 whole entry): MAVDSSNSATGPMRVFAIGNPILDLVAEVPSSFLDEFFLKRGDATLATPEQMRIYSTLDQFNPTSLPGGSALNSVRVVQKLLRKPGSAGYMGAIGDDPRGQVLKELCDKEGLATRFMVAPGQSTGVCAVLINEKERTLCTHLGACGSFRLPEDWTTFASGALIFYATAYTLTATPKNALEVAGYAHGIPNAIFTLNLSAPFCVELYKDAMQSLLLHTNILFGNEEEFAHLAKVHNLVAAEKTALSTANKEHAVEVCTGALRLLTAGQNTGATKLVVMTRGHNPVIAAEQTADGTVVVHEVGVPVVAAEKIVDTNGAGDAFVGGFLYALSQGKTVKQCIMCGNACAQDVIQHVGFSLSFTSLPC
Assay: Inhibition of Toxoplasma gondii adenosine kinase

Structure (SMILES) | IC50 (read-out: IC50) | IC50 (read-out: pIC50 (converted)) | Ki
OC[C@H]1O[C@@H](n2cnc3c(NCc4cccc(F)c4)ncnc32)[C@H](O)[C@@H]1O | 23.2 µM |  | 
OC[C@H]1O[C@@H](n2cnc3c(NCc4ccc(F)cc4)ncnc32)[C@H](O)[C@@H]1O | 20.6 µM |  | 
OC[C@H]1O[C@@H](n2cnc3c(NCc4ccc(Cl)cc4)ncnc32)[C@H](O)[C@@H]1O | 25.8 µM |  | 
COc1ccccc1CNc1ncnc2c1ncn2[C@@H]1O[C@H](CO)[C@@H](O)[C@H]1O | 8.7 µM |  | 
OC[C@H]1O[C@@H](n2cnc3c(NCc4ccc(C(F)(F)F)cc4)ncnc32)[C@H](O)[C@@H]1O | 22.9 µM |  | 
COc1ccc(CNc2ncnc3c2ncn3[C@@H]2O[C@H](CO)[C@@H](O)[C@H]2O)cc1 | 7.5 µM | 7.19 µM | 
OC[C@H]1O[C@@H](n2cnc3c(NCc4ccc(Cl)c(Cl)c4)ncnc32)[C@H](O)[C@@H]1O | 14.3 µM |  | 
COc1ccc(CNc2ncnc3c2ncn3[C@@H]2O[C@H](CO)[C@@H](O)[C@H]2O)c(OC)c1 | 8.7 µM |  | 
OC[C@H]1O[C@@H](n2cnc3c(NCc4ccc(F)cc4F)ncnc32)[C@H](O)[C@@H]1O | 8.2 µM |  | 
N#Cc1ccc(CNc2ncnc3c2ncn3[C@@H]2O[C@H](CO)[C@@H](O)[C@H]2O)c(Cl)c1 | 21.1 µM | 10.4 µM | 
COc1ccc(CNc2ncnc3c2ncn3[C@@H]2O[C@H](CO)[C@@H](O)[C@H]2O)c(F)c1 | 9.5 µM |  | 
CC(C)(C)c1ccc(CSc2ncnc3c2ncn3[C@@H]2O[C@H](CO)[C@@H](O)[C@H]2O)cc1 | 23.3 µM |  | 113 µM
OC[C@H]1O[C@@H](n2cnc3c(SCc4ccccc4Cl)ncnc32)[C@H](O)[C@@H]1O | 6.7 µM |  | 1.4 µM
Cc1ccc(CSc2ncnc3c2ncn3[C@@H]2O[C@H](CO)[C@@H](O)[C@H]2O)cc1 | 7.8 µM |  | 3.3 µM
OC[C@H]1O[C@@H](n2cnc3c(NCc4ccccc4Cl)ncnc32)[C@H](O)[C@@H]1O | 10.6 µM |  | 
Cc1cccc(CNc2ncnc3c2ncn3[C@@H]2O[C@H](CO)[C@@H](O)[C@H]2O)c1 | 8.5 µM |  | 
Cc1ccc(CNc2ncnc3c2ncn3[C@@H]2O[C@H](CO)[C@@H](O)[C@H]2O)cc1 | 10.5 µM |  | 
OC[C@H]1O[C@@H](n2cnc3c(NCc4ccc(Cl)cc4Cl)ncnc32)[C@H](O)[C@@H]1O | 9.3 µM |  | 
OC[C@H]1O[C@@H](n2cnc3c(SCc4ccc(F)cc4)ncnc32)[C@H](O)[C@@H]1O | 10.3 µM |  | 1.2 µM
OC[C@H]1O[C@@H](n2cnc3c(SCc4ccc(Br)cc4)ncnc32)[C@H](O)[C@@H]1O | 14.3 µM |  | 7.5 µM
OC[C@H]1O[C@@H](n2cnc3c(SCc4ccc(OC(F)(F)F)cc4)ncnc32)[C@H](O)[C@@H]1O | 24.8 µM |  | 141 µM

Structure (SMILES) | IC50 (read-out: IC50) | IC50 (read-out: pIC50 (converted)) | Ki
OC[C@H]1O[C@@H](n2cnc3c(NCc4ccccc4F)ncnc32)[C@H](O)[C@@H]1O | 37.8 µM |  | 
Cc1ccccc1CSc1ncnc2c1ncn2[C@@H]1O[C@H](CO)[C@@H](O)[C@H]1O | 7.7 µM |  | 1.5 µM
OC[C@H]1O[C@@H](n2cnc3c(SCc4ccc(Cl)c(Cl)c4)ncnc32)[C@H](O)[C@@H]1O | 10.4 µM | 21.1 µM | 2.5 µM
Cc1cccc(CSc2ncnc3c2ncn3[C@@H]2O[C@H](CO)[C@@H](O)[C@H]2O)c1 | 8.2 µM |  | 1.3 µM
OC[C@H]1O[C@@H](n2cnc3c(SCc4cccc(C(F)(F)F)c4)ncnc32)[C@H](O)[C@@H]1O | 8.7 µM |  | 2.9 µM
OC[C@H]1O[C@@H](n2cnc3c(SCc4c(F)cccc4Cl)ncnc32)[C@H](O)[C@@H]1O | 8.7 µM |  | 37.7 µM
OC[C@H]1O[C@@H](n2cnc3c(SCc4ccccc4F)ncnc32)[C@H](O)[C@@H]1O | 8.2 µM |  | 
Cc1cc(C)c(CSc2ncnc3c2ncn3[C@@H]2O[C@H](CO)[C@@H](O)[C@H]2O)c(C)c1 | 31.1 µM |  | 150 µM
OC[C@H]1O[C@@H](n2cnc3c(SCc4ccc(Cl)cc4)ncnc32)[C@H](O)[C@@H]1O | 8.11 µM |  | 2.1 µM
COc1ccc(CSc2ncnc3c2ncn3[C@@H]2O[C@H](CO)[C@@H](O)[C@H]2O)cc1 | 3.5 µM |  | 2.6 µM
OC[C@H]1O[C@@H](n2cnc3c(SCc4ccc(Cl)cc4Cl)ncnc32)[C@H](O)[C@@H]1O | 7.3 µM |  | 0.7 µM
O=[N+]([O-])c1cccc(CSc2ncnc3c2ncn3[C@@H]2O[C@H](CO)[C@@H](O)[C@H]2O)c1 | 6.2 µM |  | 3 µM
N#Cc1ccc(CSc2ncnc3c2ncn3[C@@H]2O[C@H](CO)[C@@H](O)[C@H]2O)cc1 | 4.3 µM |  | 0.9 µM
OC[C@H]1O[C@@H](n2cnc3c(SCc4ccccc4)ncnc32)[C@H](O)[C@@H]1O [6-BENZYLTHIOINOSINE] | 9.3 µM |  | 2.4 µM
OC[C@H]1O[C@@H](n2cnc3c(NCc4ccccc4)ncnc32)[C@H](O)[C@@H]1O [N6-BENZYLADENOSINE] |  | 794 µM | 
O=[N+]([O-])c1ccc(CSc2ncnc3c2ncn3[C@@H]2O[C@H](CO)[C@@H](O)[C@H]2O)cc1 [NITROBENZYLMERCAPTOPURINE RIBONUCLEOSIDE] | 12 µM |  | 1.1 µM
O=[N+]([O-])c1ccccc1CNc1ncnc2c1ncn2[C@@H]1O[C@H](CO)[C@@H](O)[C@H]1O [O-NITRO-N6-BENZYLADENOSINE] | 15 µM |  | 
CC(=O)Oc1ccc(CSc2ncnc3c2ncn3[C@@H]2O[C@H](CO)[C@@H](O)[C@H]2O)cc1 [P-ACETOXY-6-BENZYLTHIOINOSINE] | 15 µM |  | 96.1 µM
N#Cc1ccc(CNc2ncnc3c2ncn3[C@@H]2O[C@H](CO)[C@@H](O)[C@H]2O)cc1 [P-CYANO-N6-BENZYLADENOSINE] | 8.3 µM |  | 
CC(C)c1ccc(CNc2ncnc3c2ncn3[C@@H]2O[C@H](CO)[C@@H](O)[C@H]2O)cc1 [P-ISOPROPYL-N6-BENZYLADENOSINE] | 22 µM |  | 
C=Cc1ccc(CNc2ncnc3c2ncn3[C@@H]2O[C@H](CO)[C@@H](O)[C@H]2O)cc1 [P-VINYL-N6-BENZYLADENOSINE] | 26.2 µM |  | 
